In ChEMBL document CHEMBL3868641, “Discovery, characterization and biological evaluation of a novel (R)-4,4-difluoropiperidine scaffold as dopamine receptor 4 (D4R) antagonists” (Bioorg Med Chem Lett, 2016):

Assays:
[1] = Displacement of [3H]Spiperone from recombinant human Dopamine D4.4 receptor expressed in CHO-K1 cell membranes after 120 mins
[2] = test system: CHO-K1; assay: Displacement of [3H] Spiperone from recombinant human Dopamine D4.4 receptor expressed in CHO-K1 cell membranes at 0.1 uM after 120 mins relative to control
[3] = Displacement of [3H]Spiperone from recombinant human Dopamine D4.4 receptor expressed in CHO-K1 cell membranes at 10 uM after 120 mins relative to control
[4] = Intrinsic clearance in human liver microsomes by HPLC/MS analysis; type: ADME; conditions: read-out: CLH
[5] = Intrinsic clearance in rat liver microsomes by HPLC/MS analysis; type: ADME; conditions: read-out: CLH
[6] = Unbound fraction in human plasma by HPLC/MS based equilibrium dialysis method; type: ADME, cell-free
[7] = Unbound fraction in rat plasma by HPLC/MS based equilibrium dialysis method; type: ADME, cell-free
[8] = Plasma concentration in rat at 0.25 mg/kg, iv administered through cassette dosing after 0.25 hrs by LC/MS/MS analysis; type: ADME, organism-based
[9] = Drug uptake in rat brain at 0.25 mg/kg, iv administered through cassette dosing after 0.25 hrs by LC/MS/MS analysis; type: ADME, organism-based; conditions: for concentration at 0.25 h: brain, read-out: Drug uptake
[10] = Displacement of [3H] Spiperone from recombinant human Dopamine D4.4 receptor expressed in CHO-K1 cell membranes at 1 uM after 120 mins relative to control
[11] = Ratio of drug level in brain to plasma in rat at 0.25 mg/kg, iv administered through cassette dosing after 0.25 hrs by LC/MS/MS analysis; type: ADME, organism-based
[12] = target: D(1A) dopamine receptor (Homo sapiens) (UniProt P21728); assay: Displacement of [3H]SCH-23390 from recombinant human Dopamine D1 receptor expressed in CHO cell membranes at 10 uM after 120 mins relative to control
Chain of D(1A) dopamine receptor (Homo sapiens) (P21728 whole entry): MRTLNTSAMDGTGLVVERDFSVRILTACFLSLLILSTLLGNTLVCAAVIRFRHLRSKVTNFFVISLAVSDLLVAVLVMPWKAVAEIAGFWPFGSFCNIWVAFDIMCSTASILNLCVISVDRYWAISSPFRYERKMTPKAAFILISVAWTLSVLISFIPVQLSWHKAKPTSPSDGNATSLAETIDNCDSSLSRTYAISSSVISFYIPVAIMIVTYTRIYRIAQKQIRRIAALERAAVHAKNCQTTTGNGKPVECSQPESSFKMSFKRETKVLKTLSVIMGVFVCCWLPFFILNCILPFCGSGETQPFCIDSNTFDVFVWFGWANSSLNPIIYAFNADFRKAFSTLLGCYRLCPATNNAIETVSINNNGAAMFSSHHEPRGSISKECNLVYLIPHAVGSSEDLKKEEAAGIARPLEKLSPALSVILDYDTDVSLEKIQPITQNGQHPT

[13] = target: D(2) dopamine receptor (Homo sapiens) (UniProt P14416); assay: Displacement of [3H]Spiperone from recombinant human Dopamine D2L receptor expressed in CHO cell membranes at 10 uM after 120 mins relative to control
Chain of D(2) dopamine receptor (Homo sapiens) (P14416 whole entry): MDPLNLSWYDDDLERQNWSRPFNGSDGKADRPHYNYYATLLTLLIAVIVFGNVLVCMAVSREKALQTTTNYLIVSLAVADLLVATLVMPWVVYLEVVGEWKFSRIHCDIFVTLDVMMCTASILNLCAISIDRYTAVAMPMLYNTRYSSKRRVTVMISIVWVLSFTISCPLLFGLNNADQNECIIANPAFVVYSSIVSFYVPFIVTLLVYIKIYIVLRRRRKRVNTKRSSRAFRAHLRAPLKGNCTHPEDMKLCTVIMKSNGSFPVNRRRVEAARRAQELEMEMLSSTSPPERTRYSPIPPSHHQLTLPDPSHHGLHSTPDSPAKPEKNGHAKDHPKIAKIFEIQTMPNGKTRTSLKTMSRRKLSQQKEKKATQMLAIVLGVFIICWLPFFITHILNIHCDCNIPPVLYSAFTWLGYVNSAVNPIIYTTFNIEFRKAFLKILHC

[14] = target: D(2) dopamine receptor (Homo sapiens) (UniProt P14416); assay: Displacement of [3H]Spiperone from recombinant human Dopamine D2S receptor expressed in CHO cell membranes at 10 uM after 120 mins relative to control
[15] = target: D(3) dopamine receptor (Homo sapiens) (UniProt P35462); assay: Displacement of [3H]Spiperone from recombinant human Dopamine D3 receptor expressed in CHO cell membranes at 10 uM after 120 mins relative to control
Chain of D(3) dopamine receptor (Homo sapiens) (P35462 whole entry): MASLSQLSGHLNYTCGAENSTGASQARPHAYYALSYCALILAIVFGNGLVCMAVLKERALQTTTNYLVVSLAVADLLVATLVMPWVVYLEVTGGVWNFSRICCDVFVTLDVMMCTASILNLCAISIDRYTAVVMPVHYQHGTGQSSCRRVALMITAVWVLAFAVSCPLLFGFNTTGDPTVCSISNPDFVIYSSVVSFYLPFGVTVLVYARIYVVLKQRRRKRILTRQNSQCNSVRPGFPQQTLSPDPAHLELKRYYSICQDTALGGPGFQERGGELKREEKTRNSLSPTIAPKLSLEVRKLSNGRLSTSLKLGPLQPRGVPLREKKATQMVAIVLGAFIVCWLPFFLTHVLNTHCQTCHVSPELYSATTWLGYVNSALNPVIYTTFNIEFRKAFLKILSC

[16] = target: D(1B) dopamine receptor (Homo sapiens) (UniProt P21918); assay: Displacement of [3H]SCH-23390 from recombinant human Dopamine D5 receptor expressed in CHO cell membranes at 10 uM after 120 mins relative to control
Chain of D(1B) dopamine receptor (Homo sapiens) (P21918 whole entry): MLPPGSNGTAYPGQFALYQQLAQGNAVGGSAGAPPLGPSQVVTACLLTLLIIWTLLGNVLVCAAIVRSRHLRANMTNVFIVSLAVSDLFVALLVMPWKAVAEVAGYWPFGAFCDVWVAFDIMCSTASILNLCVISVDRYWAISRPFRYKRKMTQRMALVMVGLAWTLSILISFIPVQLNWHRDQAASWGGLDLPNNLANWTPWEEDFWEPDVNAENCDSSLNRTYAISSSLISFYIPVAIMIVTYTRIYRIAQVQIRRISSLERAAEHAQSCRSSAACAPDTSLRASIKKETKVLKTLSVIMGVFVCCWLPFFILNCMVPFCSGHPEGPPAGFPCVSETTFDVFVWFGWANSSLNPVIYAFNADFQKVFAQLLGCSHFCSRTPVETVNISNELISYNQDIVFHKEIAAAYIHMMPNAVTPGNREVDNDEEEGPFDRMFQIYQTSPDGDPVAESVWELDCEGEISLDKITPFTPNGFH

[17] = test system: CHO-K1; assay: Displacement of [3H] Spiperone from recombinant human Dopamine D4.4 receptor expressed in CHO-K1 cell membranes at 10 nM after 120 mins relative to control

Compound	IC50 [1] [nM]	Ki [1] [nM]	inhibition [2] [%]	inhibition [3] [%]	CLint scaled [4] [mL/min/kg]	CLint scaled [5] [mL/min/kg]	fraction unbound [6]	fraction unbound [7]	concentration at 0.25 h [8] [ng/mL]	Drug uptake ([9]; in vivo, 0.25 h, BLD = below limit of detection)	inhibition [10] [%]	concentration at 0.25 h [9] [ng/g]	Kp at 0.25 h [11]	inhibition [12] [%]	inhibition [13] [%]	inhibition [14] [%]	inhibition [15] [%]	inhibition [16] [%]	inhibition [17] [%]
COc1ccc2c(CN3CCC(F)(F)[C@@H](CCc4ccc(F)cc4)C3)c[nH]c2c1	620	170	64																
Fc1ccc2[nH]cc(CN3CCC(F)(F)[C@@H](CCc4ccccc4)C3)c2c1				55	70.5	1910	0.001	0.001	25.3	Bld									
Fc1ccccc1CC[C@@H]1CN(Cc2c[nH]c3cc(Cl)ccc23)CCC1(F)F	190	53			156	1300	0.005	0.002	54.8		84	23.5	0.4						
Fc1ccc(CC[C@H]2CN(Cc3c[nH]c4cc(F)ccc34)CCC2(F)F)cc1	320	89									75			< 50	< 50	< 50	52	< 50	
Fc1ccc2c(CN3CCC(F)(F)[C@H](CCc4ccccc4)C3)c[nH]c2c1	23	6.3			111	2490	0.001	0.014	28.6		79	100	3.5						
FC1(F)CCN(Cc2c[nH]c3cc(Cl)ccc23)C[C@H]1CCc1ccccc1	64	17.7									59								
Fc1ccc2[nH]cc(CN3CCC(F)(F)[C@H](CCc4ccccc4)C3)c2c1	59	16.4									66								
Cc1ccc(CN2CCC(F)(F)[C@H](CCc3ccccc3)C2)cc1C	230	63		77	108	1670	0.005	0.004	44.4			93.7	2.1						
COc1ccc2c(CN3CCC(F)(F)[C@H](CCc4cccc(F)c4)C3)c[nH]c2c1	18.6	5.2	83		300	1060	0.003	0.002	39			43.5	1.1	< 50	53	< 50	85	< 50	
Fc1ccc(CC[C@@H]2CN(Cc3c[nH]c4cc(Cl)ccc34)CCC2(F)F)cc1	21	5.8	85		99	582	0.001	0.003	14.9			19.6	1.3	< 50	51	< 50	< 50	< 50	
Fc1ccc2c(CN3CCC(F)(F)[C@@H](CCc4ccccc4F)C3)c[nH]c2c1	490	140									66			< 50	57	< 50	54	< 50	
COc1ccc2c(CN3CCC(F)(F)[C@H](CCc4ccc(F)cc4)C3)c[nH]c2c1	7	1.9			298	957	0.018	0.009	9.2			30.3	3.3	< 30	67	< 30	52	< 30	63
Fc1ccc(CC[C@@H]2CN(Cc3c[nH]c4cc(F)ccc34)CCC2(F)F)cc1	7.4	2.1					0.004	0.011	13.2			25.5	1.9	< 50	53	< 50	85	< 50	59
COc1ccc2c(CN3CCC(F)(F)[C@@H](CCc4cccc(F)c4)C3)c[nH]c2c1	530	150									62								
COc1ccc2cc(CN3CCC(F)(F)[C@H](CCc4ccccc4)C3)c(OC)nc2c1	88	24									53								
Fc1ccc2c(CN3CCC(F)(F)[C@H](CCc4ccccc4F)C3)c[nH]c2c1	14.1	3.9	85				0.005	0.05	30.4			38.9	1.3	< 50	51	< 50	65	< 50	
